# Values quoted from earlier work as cited in patent US20230285350A1, “FORMULATIONS FOR TETRACAINE AND LIDOCAINE” (LYOTIP, INC., priority 2020, published 2023).
structure (smiles),measurement,setting,value
CNC[C@H](O)c1ccc(O)c(O)c1 [Epinephrine],prolongation of numbing effect and motor block effect of the anesthetic,used with tetracaine,up to an hour
CCCCNc1ccc(C(=O)OCCN(C)C)cc1 [Tetracaine],Onset of effects,used in the eyes,≤ 30 s
same,duration of effects,used in the eyes,less than 15 minutes
"CCN(CC)CC(=O)Nc1c(C)cccc1C [lidocaine, Lidocaine]",duration of effect,used as an injectable,half an hour to three hours
